# Measurements: patent US20240293587A1, “CXCR4-TARGETED DIAGNOSTIC AND THERAPEUTIC AGENTS WITH REDUCED SPECIES SELECTIVITY” (TECHNISCHE UNIVERSITÄT MÜNCHEN, priority 2018, published 2024)
# Starred links: 1 amine or outer side, 2 acyl side, 3 side chain; linkers in the order of their positions; H or OH if unused. Non-standard residues stand in square brackets, D forms with d. Residues, ends and D or L forms follow the SMILES beside them. Groups on a side chain read outwards from the residue. *: point of attachment. dAla(N-(6-guanidinohexyl)) = C[C@@H](NCCCCCCNC(=N)N)C(=O)O; DOTA = O=C(O)CN1CCN(CC(=O)O)CCN(CC(=O)*)CCN(CC(=O)O)CC1; X2 = CC(=O)NCCCCNC(=N)NCCCCCCN([C@H](C)C(=O)[*:2])[*:1]; 2Nal = N[C@@H](Cc1ccc2ccccc2c1)C(=O)O; dNMeOrn = CN[C@H](CCCN)C(=O)O; 4Amb = NCc1ccc(C(=O)O)cc1
# Tests used:
# mouse CXCR4 (mCXCR4) = mouse CXCR4 (mCXCR4) (Mus musculus (Mouse), UniProt P70658); experiment: Competition binding on Eμ-Myc1080 mouse B-cell lymphoma cells with [125I]R1 as radioligand; conditions: 200.000 cells/sample, [125I]R1 radioligand, mean ± SD
# Method: (§1) For the determination of hCXCR4-affinity, competition binding experiments were performed using Jurkat cells and [^125I]FC131 or [^125I]R1 as radioligand. Affinity to mCXCR4 and rCXCR4 was determined using Eμ-Myc1080 mouse B-cell lyphoma cells ^57 or C6 rat glioma cells, respectively, and [^125I]R1 as the radioligand.
# (§2) For IC50 determination using Jurkat or Eμ-Myc1080 cells, samples containing 2×10^5 cells (or 4×10^5 cells; exact cell number used in the respective evaluations is given in the results section) in Hank's balanced salt solution (HBSS)/1% Bovine Serum Albumin (BSA) were incubated with 100.000 cpm of the respective radioligand (approx. 0.1 nM) in the presence of increasing concentrations (10^−11 to 10^−5 M) of the respective peptide of interest (n=3 per concentration). The total sample volume was 250 μL. After incubation at room temperature (RT) for 120 min with gentle agitation (200 mot/min), the tubes were centrifuged (5 min, 450g, Megafuge 1.0, Heraeus Thermo Scientific) and the supernatant was carefully removed. After washing twice with 400 μL of cold HBSS, the amount of cell-bound radioligand was quantified using a […]-counter.
# (§3) IC50 values were calculated using PRISM 6 software (Graph Pad Software, San Diego, CA) using a three-parameter sigmoidal dose response curve fit.
# human CXCR4 (hCXCR4) [1] = biological target: T1, human CXCR4 (hCXCR4) (Homo sapiens (Human), UniProt P61073); experiment: Competition binding on Jurkat cells with [125I]R1 as radioligand; conditions: 200.000 cells/sample, [125I]R1 radioligand, mean ± SD
# Method: as §1, §2, §3
# murine receptor (mCXCR4) = murine receptor (mCXCR4) (Mus musculus (Mouse), UniProt P70658); conditions: background statement; cited from earlier work
# human CXCR4 (hCXCR4) [2] = biological target: T1, human CXCR4 (hCXCR4); experiment: Competition binding on Jurkat cells with [125I]FC-131 as radioligand; conditions: [125I]FC-131 radioligand, mean ± SD
# Method: as §1, §2, §3
# Chain of mouse CXCR4 (mCXCR4) (P70658 whole entry): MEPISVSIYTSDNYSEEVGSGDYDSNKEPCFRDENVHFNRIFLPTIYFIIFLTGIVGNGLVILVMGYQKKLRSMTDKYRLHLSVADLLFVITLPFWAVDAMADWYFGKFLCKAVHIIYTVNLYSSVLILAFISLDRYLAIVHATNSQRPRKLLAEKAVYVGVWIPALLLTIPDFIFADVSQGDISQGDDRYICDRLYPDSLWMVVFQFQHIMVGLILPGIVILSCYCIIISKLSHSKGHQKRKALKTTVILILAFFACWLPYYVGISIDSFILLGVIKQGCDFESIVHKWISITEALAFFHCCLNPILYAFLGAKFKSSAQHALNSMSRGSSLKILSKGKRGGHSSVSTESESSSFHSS
# T1 sequence (P61073 whole entry): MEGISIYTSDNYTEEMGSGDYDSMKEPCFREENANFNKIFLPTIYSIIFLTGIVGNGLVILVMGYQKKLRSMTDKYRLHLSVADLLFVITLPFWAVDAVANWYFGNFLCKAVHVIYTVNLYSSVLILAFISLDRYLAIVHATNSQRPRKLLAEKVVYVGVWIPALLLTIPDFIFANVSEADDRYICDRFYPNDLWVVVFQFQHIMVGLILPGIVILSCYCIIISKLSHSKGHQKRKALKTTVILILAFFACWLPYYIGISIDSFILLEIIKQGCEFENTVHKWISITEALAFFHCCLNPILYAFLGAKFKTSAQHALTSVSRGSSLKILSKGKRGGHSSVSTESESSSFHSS
# Chain of murine receptor (mCXCR4) (P70658 whole entry): as the sequence (P70658 whole entry) above
Compound,IC50 (mouse CXCR4 (mCXCR4)) [nM],IC50 (human CXCR4 (hCXCR4) [1]) [nM],IC50 (human CXCR4 (hCXCR4) [2]; 400.000 cells/sample) [nM],further results
"CN1C(=O)[C@@H](Cc2ccc(O)cc2)NC(=O)CNC(=O)[C@H](Cc2ccc3ccccc3c2)NC(=O)[C@H](CCCN=C(N)N)NC(=O)[C@H]1CCCNC(=O)c1ccc(CNC(=O)CN2CCN(CC(=O)[O-])CCN(CC(=O)[O-])CCN(CC(=O)[O-])CC2)cc1.[68Ga+3] [[^68Ga]pentixafor, cyclo(D-Tyr^1-D-[NMe]Orn^2(AMBS-DOTA)-Arg^3-Nal^4-Gly^5)] (cyclo([2Nal]G[dY][dNMeOrn]([4Amb-DOTA])R))",,,,affinity to mCXCR4 (in words) (murine receptor (mCXCR4)): virtually no affinity
"C[C@@H]1C(=O)N[C@@H](CCCNC(=N)N)C(=O)N[C@@H](Cc2ccc3ccccc3c2)C(=O)N[C@H](CS)C(=O)N[C@H](Cc2ccc(O)cc2)C(=O)N1CCCCCCNC(=N)N [Pc0, Cyclo(ya′(hexylguanidino)Rnalc)] (cyclo([2Nal][dC][dY][dAla(N-(6-guanidinohexyl))]R))",,,35 ± 2,
"CC(=O)NCCCCNC(=N)NCCCCCCN1C(=O)[C@@H](Cc2ccc(O)cc2)NC(=O)CNC(=O)[C@H](Cc2ccc3ccccc3c2)NC(=O)[C@H](CCCNC(=N)N)NC(=O)[C@H]1C [P3, c(y-(NHex-Gua-But-Ac)a-R-Nal-G)] (cyclo([dY][X2]R[2Nal]G))",,,,IC50 (human CXCR4 (hCXCR4) [2]; 200.000 cells/sample): 2.1 ± 0.5 nM
cyclo(D-3-iodo-Tyr^1-D-[NMe]Orn^2(AMBS-DOTA)-Arg^3-Nal^4-Gly^5) [[^177Lu/^90Y]pentixather],,,,affinity to mCXCR4 (in words) (murine receptor (mCXCR4)): virtually no affinity
cyclo[ya′(hexylguanidino)RNalc(-CH2—CO—NH—CH2-(m-aryl)-CH2—NH-^natLu-DOTA)] [Pc5c],,,51 ± 4,
cyclo[ya′(hexyluanidino)RNalc(-CH2—CO—NH—CH2-(m-aryl)-CH2—NH-^natGa-DOTA)] [Pc5b],63 ± 19,64 ± 29,31 ± 3,
cyclo[ya′(hexylguanidino)RNalc(-CH2—CO—NH—CH2-(m-aryl)-CH2—NH-^natCu-DOTA)] [Pc5d],,,78 ± 5,

# Now from value to compound, other results behind:
IC50 (mouse CXCR4 (mCXCR4)) [nM],IC50 (human CXCR4 (hCXCR4) [1]) [nM],IC50 (human CXCR4 (hCXCR4) [2]; 400.000 cells/sample) [nM],Compound,further results
156 ± 7,156 ± 11,,"C[C@@H]1C(=O)N[C@@H](CCCNC(=N)N)C(=O)N[C@@H](Cc2ccc3ccccc3c2)C(=O)NCC(=O)N[C@H](Cc2ccc(O)cc2)C(=O)N1CCCCCCNC(=N)NCCCCCCNC(=O)CCCCC[N+]1=C(/C=C/C=C/C=C2/N(C)c3ccc(S(=O)(=O)O)cc3C2(C)C)C(C)(C)c2cc(S(=O)(=O)[O-])ccc21 [P5e, Sulfo2-Cy5-Hex-CPCR4.3]",
63 ± 23,91 ± 49,,"C[C@@H]1C(=O)N[C@@H](CCCNC(=N)N)C(=O)N[C@@H](Cc2ccc3ccccc3c2)C(=O)NCC(=O)N[C@H](Cc2ccc(O)cc2)C(=O)N1CCCCCCNC(=N)NCCCCCCNC(=O)CCOCCOCCOCCOCCNC(=O)CCCCC[N+]1=C(/C=C/C=C/C=C2/N(C)c3ccc(S(=O)(=O)O)cc3C2(C)C)C(C)(C)c2cc(S(=O)(=O)[O-])ccc21 [P5g, Sulfo2-Cy5-PEG4-Hex-CPCR4.3]",IC50 (human CXCR4 (hCXCR4) [2]; 200.000 cells/sample): 40 ± 5 nM
12.7 ± 4.6,13 ± 2,,"C[C@@H]1C(=O)N[C@@H](CCCNC(=N)N)C(=O)N[C@@H](Cc2ccc3ccccc3c2)C(=O)NCC(=O)N[C@H](Cc2ccc(O)cc2)C(=O)N1CCCCCCNC(=N)NCCCCCCNC(=O)CN1CCN(CC(=O)O)CCN(CC(=O)O)CCN(CC(=O)O)CC1 (natGa complex, metal not drawn) [P5c]",
136 ± 26,115 ± 39,,"C[C@@H]1C(=O)N[C@@H](CCCNC(=N)N)C(=O)N[C@@H](Cc2ccc3ccccc3c2)C(=O)NCC(=O)N[C@H](Cc2ccc(O)cc2)C(=O)N1CCCCCCNC(=N)NCCCCCCNC(=O)CCCCCN1/C(=C/C=C/C=C/C2=[N+](CCCCCC(=O)NCCCCCCNC(=N)NCCCCCCN3C(=O)[C@@H](Cc4ccc(O)cc4)NC(=O)CNC(=O)[C@H](Cc4ccc5ccccc5c4)NC(=O)[C@H](CCCNC(=N)N)NC(=O)[C@H]3C)c3ccc(S(=O)(=O)[O-])cc3C2(C)C)C(C)(C)c2cc(S(=O)(=O)O)ccc21 [P5f, Sulfo2-Cy5(Hex-CPCR4.3)2]",
17 ± 3.3,,,"C[C@@H]1C(=O)N[C@@H](CCCNC(=N)N)C(=O)N[C@@H](Cc2ccc3ccccc3c2)C(=O)NCC(=O)N[C@H](Cc2ccc(O)cc2)C(=O)N1CCCCCCNC(=N)NCCCCCCNC(=O)CN1CCN(CC(=O)O)CCN(CC(=O)O)CCN(CC(=O)O)CC1 (natLu complex, metal not drawn) [P5d]",
